Assay: Human HepG2 cell viability assay in 384 well format
Assay type: toxicity, cell-based
Design: dose 125 nL, time 70.5 hour; cytotoxicity at 70.5 h: concentration not given beside the values
Conditions: HepG2 cells, read-out: Inhibition

Compound	cytotoxicity at 70.5 h [%]
COc1cc(Br)c(CNC(C)c2nnc3n2CCC3)cc1OC (stereo not given)	10.6
Cc1occc1C(=O)N1CCCN(Cc2cnn(C(C)C)c2)CC1	-6.65
c1coc(-c2[nH]c3ncccc3c2CN2CCCOCC2)c1	-4.25
NC(=O)CNC(=O)c1cc(Cn2cnc3ccccc32)[nH]n1	-5.83
CCc1sc(-c2nnc(CNC(C)Cn3cccn3)o2)cc1C (stereo not given)	-11.3
CO[C@H]1C[C@@H]2CN(C(=O)Cc3ccc(C)s3)C[C@@H]2C1	-2.91
O=C(c1ccccc1)N1CCC[C@]2(C[C@@H](OCc3ccncc3)CO2)C1	-4.9
COc1cc(N2CCCC3(CCN(c4cncnc4)C3=O)C2)ncn1 (stereo not given)	-7.92
CN(CC(=O)Nc1nncs1)CC1CCCN1c1cccnn1 (stereo not given)	4.97
CC(C)NC(=O)N1CCC(n2ccc(C(F)(F)F)n2)CC1	1.15
CN(Cc1nnn(CC2CC2)n1)C(=O)c1ccccc1	32.1
Cn1cc(CN2CCc3nc4ccccc4c(=O)n3CC2)cn1	-1.93
Cc1ccc(Cl)cc1NC(=O)Nc1c[nH]c(=O)[nH]c1=O	0.569
CN(Cc1nncn1C)C(=O)c1cc(COc2ccccc2)[nH]n1	-5.51
CN(CCc1noc(C2CC2)n1)C(=O)CN1C(=O)COc2ccccc21	-4.64
CC(c1cc(F)ccc1F)N1CCN(Cc2nccn2C)CC1 (stereo not given)	2.5
CC(C)C(=O)N1CCN(Cc2ccccn2)CC2(CC(=O)N(C)C2)C1 (stereo not given)	-9.37
CCC(C(=O)NCC1CCN(c2cnn(C)c(=O)c2)CC1)n1cccn1 (stereo not given)	-7.23
O=C(Nc1cnc2n1CCCC2)C1CCCN1C1CCNCC1 (stereo not given)	-15
Nc1nccnc1C(=O)N(Cc1ccccc1O)CC1CCCO1 (stereo not given)	-13.9
CCn1nc2c(cc1=O)CN(Cc1cc(C)on1)CC2	-3.67
O=C(c1cc(F)ccc1O)N1CCN(C(=O)C2CCC2)CC1	-3.26
COc1cc(CNCCc2cnn(C)c2)cc2c1OCO2	-8.59

Compound	cytotoxicity at 70.5 h [%]
COCCSCC(=O)NCc1ccnc(N(C)C)c1	-8.31
Cc1oc(C)c(C(=O)Nc2ccccn2)c1C	-10.7
O=C1CC2(CCN(Cc3ccoc3)CC2)CN1Cc1cc(F)cc(F)c1	-6.12
Cc1cc2nc(SCC(=O)N3CCCC3)n(Cc3ccco3)c(O)c-2n1	-8.29
CC(=O)N1CCOCC(Cc2ccc3c(ccn3C(C)=O)c2)C1 (stereo not given)	-2.4
CCN(CC)CCn1c(NC(=O)c2scnc2C)nc2ccccc21	5.56
c1ccc2c3c([nH]c2c1)C(c1nn[nH]n1)CCC3 (stereo not given)	-10.7
O=S(=O)(C1CC1)N1CCO[C@H]2[C@H](OCC3CCCC3)CC[C@@H]21	1.94
Cc1ccc(CN2CCCC(c3cnccn3)C2)s1 (stereo not given)	-1.38
O=C(CC1CCN(c2ncnc3cccc(F)c23)CC1)N1CCCC1	-24.3
CN1CCC(N2C[C@H](O)C[C@H]2c2nc(Cc3ccccc3)no2)CC1	-7.37
O=c1nc(CNc2ccccc2)[nH]n1Cc1ccccc1	-13.1
c1coc(CN2CCn3c(COCC4CC4)nnc3C2)c1	0.787
COc1ccc(CNc2nc(C3CC3)nc3c(C)nn(C)c23)cc1	-0.926
O=C(CCC(=O)N1CCOCC1)NCc1cccnc1-n1cccn1	1.46
O=C(c1cn[nH]c1)N1CCC2(CCCN(Cc3ccc(F)c(F)c3)C2)C1 (stereo not given)	-8.34
O=C(Nc1cccnc1)[C@H]1CN(Cc2ccccn2)C[C@H]2OCC[C@@H]12	-7.69
CCOc1ccccc1C(=O)NC(CC(=O)O)c1cccs1 (stereo not given)	-6.28
Cc1cccc(CN2Cc3[nH]nc(COCc4nccs4)c3C2)n1	-0.324
Fc1cccc(-c2nc(CN3CCOC(Cn4cncn4)C3)co2)c1 (stereo not given)	-15.8
O=C(NCCn1nc2ccccn2c1=O)c1cc[nH]n1	0.216
COCCN1CC(=O)N2CC[C@@H](O)C[C@H]2C1=O	28.2
CC(C)(C)c1cnc(CN2CCC(c3ccnn3CCO)CC2)o1	-11.1

Compound	cytotoxicity at 70.5 h [%]
O=C(C1CCCCC1)N1CCC2(CC1)OCCO2	-5.09
c1cnn(CCNCc2ccc(N3CCCCC3)cc2)c1	-13.6
Cc1n[nH]c(C)c1CCN(C)c1ccc(-c2nc(C3CC3)no2)cn1	4.49
O=C(NC1CCS(=O)(=O)C1)c1sccc1OC(F)F (stereo not given)	0.608
O=S(=O)(Nc1cnc(N2CCOCC2)nc1)c1ccc(C(F)(F)F)cc1	2.45
N#CC1(C(=O)N2CCN(Cc3cscn3)CC2)CCCCC1	-4.74
CN1CC2(CCN(CCCOCc3ccccc3)CC2)OC1=O	-9.74
Cc1cc(C)c(CNc2ncnc3c2cnn3C)c(=O)[nH]1	-11.1
CCN1CCN(C2CCN(Cc3nnc(C4CC4)o3)CC2)C1=O	12.8
Cc1ccsc1CNC(=O)CSc1nnc[nH]1	-11.1
CC(=O)N1CCN(C(C)c2nnc(CC(C)C)o2)CC1 (stereo not given)	-4.1
N#Cc1csc(CNCCOc2ncccc2Cl)c1	8.52
CC(=O)N1CCC(c2n[nH]c3nccnc23)CC1	-7.48
COCC1CCCCN1Cc1nc(-c2ccoc2)oc1C (stereo not given)	-1.54
C[C@@H]1C[C@H](C(F)(F)F)n2nc(C3CCN(S(C)(=O)=O)CC3)cc2N1	-2.94
O=C(C[C@@H]1COC[C@H]2CN(Cc3ccccn3)C[C@@H]12)N1CCOCC1	-2.94
Cc1cc(C)nc(N2CCC(CNC(=O)c3ccccn3)CC2)n1	2.6
Cc1ccc(OCc2occc2C(=O)N2CCOC(C(=O)O)C2)cc1 (stereo not given)	11.5
COc1cccc(OC2CN(C(=O)CCn3cnnn3)C2)c1	-10.5
COc1ncc(C(F)(F)F)c(C(=O)O)c1Cl	24.8
Clc1ccc(CN2CCc3c(ncn3C3CC3)C2)c2ncccc12	-2.64
COc1cc(N2CC[C@@H](O)[C@@H]2Cc2cccnc2)ncn1	-8.63
O=C(NCc1ncc(-c2ccccc2)o1)NC1CCC(O)CC1 (stereo not given)	-7.39

Compound	cytotoxicity at 70.5 h [%]
Cc1ccc(N2CCO[C@H]3[C@H](OCC(=O)N4CCCC4)CC[C@@H]32)cc1	-1.99
Cc1noc(C)c1CCC(=O)NCCc1cccs1	-7.09
CN(Cc1ncnn1C)C(=O)Nc1ccc(OC(F)F)cc1	-8.26
O=C(c1nc(N2CCCC2)ncc1Cl)N1CCN(Cc2ccsc2)CC1	29
O=C(O)c1ccc(CN2CCCC(Cc3ccn[nH]3)C2)cc1 (stereo not given)	-4.91
c1cncc(O[C@@H]2CC[C@H]3[C@H]2OCCN3C2CCCC2)c1	3.46
O=C(O)CCC(=O)N1CCN(CC2CC2)c2ncccc2C1	22.2
Cc1nc(N2C[C@@H](CN3CCCN(C)CC3)[C@@H](CO)C2)c2sccc2n1	27.9
CCC(C)(CC)NC(=O)COc1nn(C)c2nc(C)cc(C)c12	14.2
CCN(CC)S(=O)(=O)NCc1ccc(-c2ccc(C(N)=O)c(C)n2)cc1	-12.3
CN(Cc1ccco1)C1CCC12CCN(C(=O)c1ccnnc1)CC2 (stereo not given)	5.1
Cc1nn(C)c2ncc(S(=O)(=O)N3CCN4CCCC4C3)cc12 (stereo not given)	-7.68
CN(C)CCNC(=O)CCn1ncc2c(Cl)cccc21	-4.46
O=C1COC2(CCN(Cc3ccsc3)CC2)CN1	-4.53
Cc1cc(N2CCCCC2)nc(N(CCO)CCO)c1C#N	-8.15
CCOc1cc(Cl)c(CN2CCC3(CCCNC3=O)C2)cc1OC (stereo not given)	-5.69
CC(C)N1CCCC(Cc2nccnc2Cl)C1 (stereo not given)	-4.45
CNC(=O)NC(=O)CN1CCN(c2ccc(C(=O)OC)cc2)CC1C (stereo not given)	-7.85
COc1ccccc1C(C#N)NC(=O)c1cccc2c1oc(=O)n2C (stereo not given)	-6.2
CN(C)C(=O)N1CCCC(C(=O)N(C)CCCc2cnn(C)c2)C1 (stereo not given)	-11.5
COCCN1C=NC2(CCC(C(=O)Nc3ccc(C)cc3)CC2)C1=O (stereo not given)	-3.77
Cc1cc(-c2ccnn2C)nc(C2CCCN(S(C)(=O)=O)C2)n1 (stereo not given)	-13.9
Cc1nn(C)cc1-c1cncn1CCN(C)C1CCCC1	-5

Compound	cytotoxicity at 70.5 h [%]
Cc1cnn(CC(C)NCc2ccc(C#N)cc2)c1 (stereo not given)	0.599
Cc1cccc2c(=O)n(C(C)Cc3cccnc3)cnc12 (stereo not given)	-8.06
O=C(COc1ccccc1)NCC1CCN(Cc2ccsc2)CC1	-4.27
Cc1cccc(OCCC(=O)NCC2CN(C)CCO2)c1C (stereo not given)	-5.5
CC(C)c1cc(CSCCC(=O)O)no1	-4.33
Cc1nn(C)cc1CN1CCc2nc(-c3cccnc3)nc(O)c2C1	-3.92
Cc1nn(C)c(C)c1CCC(=O)Nc1cccn(C)c1=O	-3.26
CC1CCN(CC(=O)NC2CCN(C(C)c3ccccc3)CC2)CC1 (stereo not given)	-12.3
CCc1nnc2n1CCN(C(=O)c1cnc(-c3cccs3)s1)C2	-7.22
Cc1ccc(CN2C[C@@H](C(=O)Nc3cccnc3)C[C@H]3OCC[C@H]32)o1	21.9
CCc1cc(N2CCC(NCc3ccc(C)o3)CC2)ncn1	9.42
O=C(O)C1(Cc2cccc(-c3cccs3)c2)CCCNC1 (stereo not given)	14.3
N#Cc1ccccc1C(=O)N1C[C@H](CO)C[C@H](CN2CCCC2)C1	-8.82
CC1CCc2nn(CCNC(=O)Cc3ccccc3F)c(=O)cc2C1 (stereo not given)	0.912
O=C(C1CCOC1)N1CCC2(CCCNC2)CC1 (stereo not given)	-8.86
Cn1cccc1C(=O)N1CCC2(CC1)c1nc[nH]c1CCN2S(C)(=O)=O	-3.6
CC(c1ccco1)N(C(=O)NCc1ccon1)C1CC1 (stereo not given)	56.7
Cc1nnc(SC2CCN(c3sccc3C#N)C2=O)s1 (stereo not given)	24.5
Cn1c(N2CCOCC2)nc2cc(C(=O)NCC(F)(F)F)ccc21	-9.13
CSc1ccc(CCNC(=O)Cc2c(C)n[nH]c2C)cc1	-7.74
CC(c1cccc(-c2ncccc2C#N)c1)N(C)C (stereo not given)	-15.1
O=C(c1cccs1)N1CCOCC2(C1)CN(c1ccccc1)C(=O)CO2 (stereo not given)	-9.8
CCOC(=O)NC(CNC(=O)c1cccc(C)n1)CC(C)C (stereo not given)	7.69
